Data on 26 compounds can be found in US20140045823A1 (Neurocrine Biosciences, Inc., priority 2012, published 2014).

A word on the EC50: it is the concentration that produces a half-maximal response.

For one assay, the target named is T1, human GPR119 (Homo sapiens, UniProt Q8TDV5).
T1 construct: expression vector for human GPR119 cDNA (Acc. No. NP_848566); expressed in transfected cells; Min-6/hGPR119
T1 sequence (Q8TDV5 1-335): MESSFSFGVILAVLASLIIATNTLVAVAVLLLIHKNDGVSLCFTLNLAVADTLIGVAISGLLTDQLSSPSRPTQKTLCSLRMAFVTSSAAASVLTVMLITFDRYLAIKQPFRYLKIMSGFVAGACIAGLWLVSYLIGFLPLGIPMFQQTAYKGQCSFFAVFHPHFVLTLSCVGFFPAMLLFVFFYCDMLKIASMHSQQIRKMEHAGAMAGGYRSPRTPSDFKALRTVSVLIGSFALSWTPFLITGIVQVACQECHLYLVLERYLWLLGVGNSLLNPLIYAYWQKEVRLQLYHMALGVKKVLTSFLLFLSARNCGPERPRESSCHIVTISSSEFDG
The assay is described as follows: AlphaScreen cAMP assay in MIN6 cells stably transfected with human GPR119. It counts as cell-based. The note with it: Min-6/hGPR119 cells, 45 min at room temperature. Summed up:
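cAMP accumulation quantified by AlphaScreen after 45 min compound stimulation at about 20 °C. Stimulation buffer: pH 7.4 HEPES saline with 0.5 mM IBMX, 0.1% BSA, 1% DMSO final. Cells: MIN6 stably transfected with human GPR119, 10000/well, cultured 24 h beforehand.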
Compound `CC(C)(C)OC(=O)N1CCC(N(C(=O)c2cnc(-c3ccc(C(=O)NCc4cccnn4)c(F)c3)nc2)C2CC2)CC1` [Example 232, 4-[Cyclopropyl-(2-{3-fluoro-4-[(pyridazin-3-ylmethyl)-carbamoyl]-phenyl}-pyrimidine-5-carbonyl)-amino]-piperidine-1-carboxylic acid tert-butyl ester] came in with an EC50 of 422 nM.

In turn, `CN(CCC#N)C(=O)c1ccc(-c2ncc(C(=O)N(C3CC3)C3CCN(C(=O)OC(C)(C)C)CC3)cn2)cc1F` [Example 234, 4-[(2-{4-[(2-Cyano-ethyl)-methyl-carbamoyl]-3-fluoro-phenyl}-pyrimidine-5-carbonyl)-cyclopropyl-amino]-piperidine-1-carboxylic acid tert-butyl ester] yielded an EC50 of 297 nM.

For the compound `COC[C@H]1CCCN1C(=O)Cc1ccc(-c2ncc(C(=O)N(C3CC3)C3CCN(C(=O)OC(C)(C)C)CC3)cn2)cc1` [Example 235, 4-[Cyclopropyl-(2-{4-[2-(2-methoxymethyl-pyrrolidin-1-yl)-2-oxo-ethyl]-phenyl}-pyrimidine-5-carbonyl)-amino]-piperidine-1-carboxylic acid tert-butyl ester], the concentration giving a half-maximal response (EC50) amounted to 307 nM.

As for `CN(Cc1cccnc1)C(=O)Cc1ccc(-c2ncc(C(=O)N(C3CC3)C3CCN(C(=O)OC(C)(C)C)CC3)cn2)cc1` [Example 236, 4-[Cyclopropyl-(2-{4-[(methyl-pyridin-3-ylmethyl-carbamoyl)-methyl]-phenyl}-pyrimdine-5-carbonyl)-amino]-piperidine-1-carboxylic acid tert-butyl ester], it took 317 nM to reach a half-maximal effect (EC50).

As for `CC(C)(C)OC(=O)N1CCC(N(C(=O)c2cnc(-c3ccc(C(=O)NCC4CCOC4)cc3)nc2)C2CC2)CC1` (centres unmarked) [Example 237, 4-[Cyclopropyl-(2-{4-[(tetrahydro-furan-3-ylmethyl)-carbamoyl]-phenyl}-pyrimidine-5-carbonyl)-amino]-piperidine-1-carboxylic acid tert-butyl ester], the midpoint of the response, the EC50, lay at 408 nM.

Turning to `COc1ccc(NC(=O)c2ccc(-c3ncc(C(=O)N(C4CC4)C4CCN(C(=O)OC(C)(C)C)CC4)cn3)cc2)c(OC)c1` [Example 238, 4-(Cyclopropyl-{2-[4-(2,4-dimethoxy-phenylcarbamoyl)-phenyl]-pyrimidine-5-carbonyl}-amino)-piperidine-1-carboxylic acid tert-butyl ester], the EC50 was determined as 111 nM.

As to `CC(C)(C)OC(=O)N1CCC(N(C(=O)c2cnc(-c3ccc(C(=O)N4CCC(C#N)C4)cc3)nc2)C2CC2)CC1` (centres unmarked) [Example 239, 4-({2-[4-(3-Cyano-pyrrolidine-1-carbonyl)-phenyl]-pyrimidine-5-carbonyl}-cyclopropyl-amino)-piperidine-1-carboxylic acid tert-butyl ester], a half-maximal response (EC50) required 424 nM.

Take `COCc1cccc(NC(=O)c2ccc(-c3ncc(C(=O)N(C4CC4)C4CCN(C(=O)OC(C)(C)C)CC4)cn3)cc2)c1` [Example 240, 4-(Cyclopropyl-{2-[4-(3-methoxymethyl-phenylcarbamoyl)-phenyl]-pyrimidine-5-carbonyl}-amino)-piperidine-1-carboxylic acid tert-butyl ester]: the midpoint of the response, the EC50, lay at 171 nM.

In the case of `CC(C)(C)OC(=O)N1CCC(N(C(=O)c2cnc(-c3ccc(C(=O)NCc4ccncc4)cc3)nc2)C2CC2)CC1` [Example 241, 4-[Cyclopropyl-(2-{4-[(pyridin-4-ylmethyl)-carbamoyl]-phenyl}-pyrimidine-5-carbonyl)-amino]-piperidine-1-carboxylic acid tert-butyl ester], the EC50 was 245 nM.

For the compound `CC(C)(C)OC(=O)N1CCC(N(C(=O)c2cnc(-c3ccc(C(=O)N4CCCC4CO)cc3)nc2)C2CC2)CC1` (centres unmarked) [Example 242, 4-(Cyclopropyl-{2-[4-(2-hydroxymethyl-pyrrolidine-1-carbonyl)-phenyl]-pyrimidine-5-carbonyl}-amino)-piperidine-1-carboxylic acid tert-butyl ester], the half-maximal effective concentration (EC50) turned out to be 593 nM.

`COCCNC(=O)c1ccc(-c2ncc(C(=O)N(C3CC3)C3CCN(C(=O)OC(C)(C)C)CC3)cn2)cc1` [Example 243, 4-(Cyclopropyl-{2-[4-(2-methoxy-ethylcarbamoyl)-phenyl]-pyrimidine-5-carbonyl}-amino)-piperidine-1-carboxylic acid tert-butyl ester]: the EC50 stood at 309 nM.

`CC(C)(C)OC(=O)N1CCC(N(C(=O)c2cnc(-c3ccc(C(=O)NCC4CCCO4)cc3)nc2)C2CC2)CC1` (centres unmarked) [Example 244, 4-[Cyclopropyl-(2-{4-[(tetrahydro-furan-2-ylmethyl)-carbamoyl]-phenyl)-pyrimidine-5-carbonyl)-amino]-piperidine-1-carboxylic acid tert-buyl ester] had an EC50 of 237 nM.

As for `CC(C)(C)OC(=O)N1CCC(N(C(=O)c2cnc(-c3ccc(C(=O)N4CCC[C@@H]4C#N)cc3)nc2)C2CC2)CC1` [Example 245, 4-({2-[4-(2-Cyano-pyrrolidine-1-carbonyl)-phenyl]-pyrimidine-5-carbonyl}-cyclopropyl-amino)-piperidine-1-carboxylic acid tert-butyl ester], the EC50 is 322 nM.

As to `Cc1cnc(CNC(=O)c2ccc(-c3ncc(C(=O)N(C4CC4)C4CCN(C(=O)OC(C)(C)C)CC4)cn3)cc2)s1` [Example 246, 4-[Cyclopropyl-(2-{4-[(5-methyl-thiazol-2-ylmethyl)-carbamoyl]-phenyl}-pyrimidine-5-carbonyl)-amino]-piperidine-1-carboxylic acid tert-butyl ester], the concentration for a half-maximal effect (EC50) was 169 nM.

`CC(C)(C)OC(=O)N1CCC(N(C(=O)c2cnc(-n3ccnc3)nc2)C2CC2)CC1` [Example 247] yielded an EC50 of 51 nM.

Take `C[C@H](OC(=O)N1CCC(N(C(=O)c2cnc(-c3cnco3)cn2)C2CC2)CC1)C(F)(F)F` [Example 258, 4-[Cyclopropyl-(5-oxazol-5-yl-pyrazine-2-carbonyl)-amino]-piperidine-1-carboxylic acid (S)-2,2,2-trifluoro-1-methyl-ethyl ester]: the EC50 was determined as 61 nM.

The next assay concerns the target T2, mutant form of the human GPR119 receptor (Homo sapiens, UniProt Q8TDV5, S329A/T327A).
T2 construct: expressed in transfected cells
T2 sequence (Q8TDV5 with tags, fused parts or gaps T327A/S329A): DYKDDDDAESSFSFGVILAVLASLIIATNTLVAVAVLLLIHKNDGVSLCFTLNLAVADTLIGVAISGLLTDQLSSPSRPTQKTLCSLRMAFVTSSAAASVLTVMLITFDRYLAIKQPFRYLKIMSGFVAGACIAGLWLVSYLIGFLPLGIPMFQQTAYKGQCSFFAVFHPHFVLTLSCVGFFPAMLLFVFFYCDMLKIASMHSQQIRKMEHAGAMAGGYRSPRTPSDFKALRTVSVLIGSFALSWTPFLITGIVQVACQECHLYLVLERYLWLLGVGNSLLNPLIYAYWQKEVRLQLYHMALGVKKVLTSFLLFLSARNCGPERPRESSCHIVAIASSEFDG
The assay is described as follows: LANCE cAMP-384 assay in HEK293 cells stably expressing a mutant form of the human GPR119 receptor. It counts as cell-based. The note with it: mutant human GPR119, LANCE cAMP-384 Kit, 20 min at 37° C., read-out: EC50 (cAMP accumulation). The procedure: Quantitative detection of cAMP accumulation from cells expressing human GPR119 receptor is achieved using Perkin Elmer's LANCE cAMP-384 Kit (Cat#AD0264) according to the manufacturer's protocol. Briefly, HEK293 cells stably expressing a mutant form of the human GPR119 receptor as assay tool (Methionine 1 replaced with the amino acid sequence […], and T327 & S329 changed to alanines; SEQ ID No. 1) are grown to 50-70% confluency in cell culture media (DMEM, 10% heat inactivated Fetal Bovine Serum, 50 I.U./mL penicillin, 50 μg/mL streptomycin, 10 mM HEPES, 20 μg/mL G418 Sulfate). On the day of the assay, GPR119 stable HEK293 cells are lifted from the tissue culture plate and 1000 cells/well are incubated along with various concentrations of test compounds for 20 min at 37° C. Detection Buffer (50 mM HEPES, 10 mM calcium chloride, 0.35% Triton X-100, 1 mg/mL BSA) containing cAMP-specific antibody is then added to all wells and allowed to equilibrate in the dark for 10 minutes at room temperature. Upon equilibration, Detection Buffer containing europium-labeled cAMP tracer complex is added to all wells and allowed to react for 1 hour at room temperature. After 1 hour, bound europium-labeled cAMP tracer is measured using a Perkin Elmer Envision plate reader. The quantity of cAMP generated in each well is derived from a standard curve. EC50 is determined using nonlinear regression analysis of the cAMP values over a range of agonist concentration (12 points spanning the range from 30 μM to […]).
A general note: In TR-FRET formats the signal depends on donor and acceptor labels being close together.
Turning to `Cc1nnnn1-c1ccc(C(=O)N(C2CC2)C2CCN(C(=O)OC(C)C)CC2F)cn1` (single isomer, unassigned) [Example 249], the EC50 was 146 nM.

As to `CC(C)OC(=O)N1CC[C@@H](N(C(=O)c2cnc(-n3cncn3)cn2)C2CC2)[C@@H](F)C1` [Example 248], the EC50 worked out at 54 nM.

As to `Cc1nccn1-c1ncc(C(=O)N(C2CC2)[C@@H]2CCN(C(=O)OC(C)C)C[C@@H]2F)cn1` [Example 250], the EC50 was 45 nM.

For `Cc1nccn1-c1ncc(C(=O)N(C2CC2)[C@H]2CCN(C(=O)OC(C)C)C[C@H]2F)cn1` [Example 251], the EC50 was 587 nM.

As for `Cc1ncnn1-c1ccc(C(=O)N(C2CC2)[C@@H]2CCN(C(=O)OC(C)C)C[C@@H]2F)cn1` [Example 252], the EC50 came out at 193 nM.

Turning to `CC(C)OC(=O)N1CCC(N(C(=O)c2cnc(-n3cncn3)cn2)C2CC2)CC1` [Example 253], the EC50 is 435 nM.

For the compound `Cc1nccn1-c1cnc(C(=O)N(C2CC2)C2CCN(C(=O)OC(C)C)CC2)cn1` [Example 254], the EC50 was 518 nM.

For `Cc1ncn(-c2cnc(C(=O)N(C3CC3)C3CCN(C(=O)OC(C)C)CC3)cn2)n1` [Example 255], the EC50 turned out to be 1550 nM.

As for `Cc1nccn1-c1ncc(C(=O)N(C2CC2)C2CCN(C(=O)OC(C)C)CC2)cn1` [Example 256], the EC50 was 265 nM.

On to `CC(C)OC(=O)N1CC[C@H](N(C(=O)c2cnc(-n3cncn3)cn2)C2CC2)[C@H](F)C1` [Example 257], for which the EC50 was 801 nM.
